Source: patent US6682898B2, “High-throughput screening assays for modulators of STAT4 activity” (Tularik Inc., priority 1998, dated 2004)
Residues, ends and D or L forms follow the SMILES beside them.

Key:
STAT6 [1] = target: T1, STAT6 (Homo sapiens, UniProt P42226); assay: STAT6 binding to phosphotyrosine receptor peptides (IC50 / binding affinity)
T1 sequence (P42226 1-847): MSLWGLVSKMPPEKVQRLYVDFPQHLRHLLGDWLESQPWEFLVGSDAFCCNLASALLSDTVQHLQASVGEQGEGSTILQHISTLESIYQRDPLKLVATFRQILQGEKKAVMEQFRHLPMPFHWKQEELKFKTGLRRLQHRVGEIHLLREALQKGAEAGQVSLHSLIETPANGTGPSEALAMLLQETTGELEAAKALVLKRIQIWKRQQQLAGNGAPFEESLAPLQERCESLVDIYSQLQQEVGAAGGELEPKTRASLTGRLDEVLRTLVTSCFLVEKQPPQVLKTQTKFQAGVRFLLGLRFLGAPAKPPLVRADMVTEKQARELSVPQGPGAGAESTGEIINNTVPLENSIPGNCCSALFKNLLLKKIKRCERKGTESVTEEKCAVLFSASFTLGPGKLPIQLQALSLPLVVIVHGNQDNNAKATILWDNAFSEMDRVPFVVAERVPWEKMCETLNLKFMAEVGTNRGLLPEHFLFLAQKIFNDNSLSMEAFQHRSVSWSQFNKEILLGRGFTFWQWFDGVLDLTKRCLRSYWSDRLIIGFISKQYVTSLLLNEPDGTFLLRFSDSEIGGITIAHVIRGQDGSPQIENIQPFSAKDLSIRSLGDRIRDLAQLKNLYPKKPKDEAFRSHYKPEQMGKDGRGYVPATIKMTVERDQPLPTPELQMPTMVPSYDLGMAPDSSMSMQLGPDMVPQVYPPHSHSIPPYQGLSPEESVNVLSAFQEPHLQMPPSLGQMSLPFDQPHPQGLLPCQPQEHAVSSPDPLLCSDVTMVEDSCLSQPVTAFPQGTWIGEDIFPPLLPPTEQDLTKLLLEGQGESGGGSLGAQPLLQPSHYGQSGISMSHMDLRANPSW

STAT6 [2] = target: T1, STAT6; assay: Chemiluminescence binding assay, signal to noise, STAT6
Procedure: The assays of the invention can be conducted as an ELISA assay, using a 96-well microplate format or a larger format if desired. In one embodiment, a phosphotyrosine-containing receptor peptide is incubated with a protein which contains an SH2 domain (e.g., a STAT polypeptide) to provide opportunity for the SH2 domain containing protein to bind the peptide. The peptide is preferably bound to a tag, e.g., biotin, at the amino terminus of the peptide. There can be a spacer between the tag and the peptide. The solution is placed in wells of a 96-well microplate that are coated with a tag binder, e.g., streptavidin. Reduction of background is achieved by incubating, in a separate reaction, a primary antibody specific for the SH2 domain containing protein and a secondary antibody specific for the first antibody which is to bind to the SH2 domain containing protein. The secondary antibody has conjugated to it a substrate for detection. The antibodies bind and form a binding pair of antibodies Ab1 and Ab2. Ab1 remains available to bind the SH2 domain containing protein for which it is specific. Ab2 remains conjugated to a substrate for chemiluminescence detection later.
The solution containing binding pairs of primary and secondary antibodies bound together is then added to the microwells that already contain the bound streptavidin, biotinylated receptor peptide and an SH2 domain containing protein bound to the receptor peptide. […]
An alternate method for conducting the assay involves preincubating the SH2 domain containing protein with the primary antibody that is specific for the SH2 domain containing protein. […] After allowing time for the SH2-antibody complex to bind the biotinylated peptide bound to streptavidin, a second antibody specific for the first antibody is added, and the presence of the second antibody is detected as before, using a chemiluminescence reaction with either alkaline phosphatase detection or horse radish peroxidase detection. […]

STAT6 [3] = target: T2, STAT6 (UniProt P42226 1-847, limits assumed); assay: binding affinity of the phosphorylated receptor peptide for STAT6; method not stated at the table (paragraph 32 speaks of IC50)
T2 construct: also called STAT6 polypeptide
T2 sequence (looked up): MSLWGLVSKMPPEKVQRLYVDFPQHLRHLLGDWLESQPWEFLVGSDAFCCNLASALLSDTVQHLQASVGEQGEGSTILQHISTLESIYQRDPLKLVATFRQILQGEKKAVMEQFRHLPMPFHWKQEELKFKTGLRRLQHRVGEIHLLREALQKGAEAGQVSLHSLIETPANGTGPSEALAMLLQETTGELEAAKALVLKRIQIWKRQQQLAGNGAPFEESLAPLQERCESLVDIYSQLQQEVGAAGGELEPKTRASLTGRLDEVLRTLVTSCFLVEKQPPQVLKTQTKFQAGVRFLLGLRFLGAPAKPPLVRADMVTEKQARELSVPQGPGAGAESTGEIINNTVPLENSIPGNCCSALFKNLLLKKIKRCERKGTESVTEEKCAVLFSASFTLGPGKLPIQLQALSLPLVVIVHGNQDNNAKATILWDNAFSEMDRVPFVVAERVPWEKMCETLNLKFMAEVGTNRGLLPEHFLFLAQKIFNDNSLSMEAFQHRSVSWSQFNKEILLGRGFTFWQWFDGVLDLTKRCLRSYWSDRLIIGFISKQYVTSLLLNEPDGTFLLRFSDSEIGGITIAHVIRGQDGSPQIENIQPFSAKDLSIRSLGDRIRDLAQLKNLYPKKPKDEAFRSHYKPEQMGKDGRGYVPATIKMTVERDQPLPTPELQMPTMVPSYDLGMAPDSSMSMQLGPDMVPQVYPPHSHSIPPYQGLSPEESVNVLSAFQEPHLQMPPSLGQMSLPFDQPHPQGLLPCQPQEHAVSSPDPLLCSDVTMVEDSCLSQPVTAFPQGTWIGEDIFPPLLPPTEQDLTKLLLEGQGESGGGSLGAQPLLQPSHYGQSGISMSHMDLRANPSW

| Compound | IC50 (STAT6 [1]) [nM] | also measured |
| --- | --- | --- |
| CC(=O)N[C@@H](Cc1ccc(OP(=O)(O)O)cc1)C(=O)N[C@@H](CCCCN)C(=O)N1CCC[C@H]1C(=O)N[C@@H](Cc1ccccc1)C(N)=O [Ac-Y^PKPF-NH2, reference compound] (HELM PEPTIDE1{[ac].[O=C([C@H](Cc1ccc(OP(=O)(O)O)cc1)N[*:1])[*:2]].K.P.F.[am]}$$$$V2.0) | 22000 | – |
| CC(=O)N[C@@H](Cc1ccc(OP(=O)(O)O)cc1)C(=O)N[C@H](C(=O)N1CCC[C@H]1C(=O)N[C@@H](Cc1c[nH]c2ccccc12)C(N)=O)C(C)C [Ac-Y^PVPW-NH2] (HELM PEPTIDE1{[ac].[O=C([C@H](Cc1ccc(OP(=O)(O)O)cc1)N[*:1])[*:2]].V.P.W.[am]}$$$$V2.0) | 1200 | – |
| CC(=O)N[C@@H](Cc1ccc(OP(=O)(O)O)cc1)C(=O)N[C@H](C(=O)N1CCC[C@H]1C(=O)N[C@@H](Cc1c[nH]c2ccccc12)C(=O)N[C@@H](CCC(N)=O)C(N)=O)C(C)C [Ac-Y^PVPWQ-NH2] (HELM PEPTIDE1{[ac].[O=C([C@H](Cc1ccc(OP(=O)(O)O)cc1)N[*:1])[*:2]].V.P.W.Q.[am]}$$$$V2.0) | 1500 | – |
| CC[C@H](C)[C@H](NC(=O)[C@H](CC(C)C)NC(=O)[C@H](CC(=O)O)NC(=O)[C@H](CCC(N)=O)NC(=O)[C@H](Cc1c[nH]c2ccccc12)NC(=O)[C@@H]1CCCN1C(=O)[C@@H](NC(=O)[C@H](Cc1ccc(OP(=O)(O)O)cc1)NC(=O)CNC(=O)[C@@H](N)CCC(=O)O)C(C)C)C(=O)O [EGY^PVPWQDLI] (HELM PEPTIDE1{E.G.[O=C([C@H](Cc1ccc(OP(=O)(O)O)cc1)N[*:1])[*:2]].V.P.W.Q.D.L.I}$$$$V2.0) | 610 | signal relative to background, STAT6 (STAT6 [2]; Ab1/Ab2 preincubation): + + + + +; signal relative to background, STAT6 (STAT6 [2]; STAT4/Ab preincubation (so in the source)): + + + + +; signal relative to background, STAT6 (STAT6 [2]; Standard assay): + + |
| CC(C)C[C@H](NC(=O)[C@@H](NC(=O)[C@H](Cc1c[nH]cn1)NC(=O)[C@@H]1CCCN1C(=O)[C@H](CCCCN)NC(=O)[C@H](CC(=O)O)NC(=O)[C@H](Cc1ccc(OP(=O)(O)O)cc1)NC(=O)CNC(=O)[C@H](Cc1ccccc1)NC(=O)[C@@H](N)CO)C(C)C)C(=O)O [SFGY*DKPHVL, reference compound] (HELM PEPTIDE1{S.F.G.[O=C([C@H](Cc1ccc(OP(=O)(O)O)cc1)N[*:1])[*:2]].D.K.P.H.V.L}$$$$V2.0) | > 100000 | – |
| Ac-Y^PKPF-NH2 (peptide) | – | BINDING AFFINITY (STAT6 [3]): 22 µM |
| Ac-Y^PVPW-NH2 (peptide) | – | BINDING AFFINITY (STAT6 [3]): 1.2 µM |
